# Reference: patent publication US20080038809A1, “ISOLATED LECTIN POLYPEPTIDES CONSISTING OF TRUNCATED […] UDP-GalNAc:POLYPEPTIDE N- ACETYLGALACTOSAMINYLTRANSFERASES” (GLYCOZYM APS, priority 2002, published 2008)
# Entries after “also recorded” stand apart in the source; their conditions may differ.
# Columns and labels:
# [1] = tested on: MUC1 in CHO1d1D/MUC1F-clone2 cells; experiment: MUC1 expression in cell lysates, immunoprecipitation and SDS-PAGE western blot (FIGS. 12-15); format: cell-based, Chinese Hamster; conditions: 2 mM, 48 hours
# Procedure: FIG. 12 is an SDS-PAGE Western analysis of GalNAcα-benzyl inhibition of MUC1 expression in CHO 1d1D cells stably transfected with a full coding MUC1 construct. […] Cells were further treated with 2 mM GalNAcα-benzyl (lanes 1, 4, 7, 10), 2 mM GlcNAcα-benzyl (lanes 2, 5, 8, 11) or no inhibitor (lanes 3, 6, 9, 12). Cells were washed and lysed at 24 or 48 hours and the lysates subjected to immunoprecipitation with monoclonal antibody HMFG2, which broadly recognize MUC1 glycoforms. Immunoprecipitates were analysed by SDS-PAGE and western blot using HMFG2 antibody to detect MUC1 expression. Lane M indicates molecular markers with assigned mw. Lane C includes a control MUC1 180-mer tandem repeat peptide which has been GalNAc-glycosylated with 3 moles GalNAc per repeat using GalNAc-T2. The sharp bands migrating at 100-200 kd are immunoglobulins indicated by IgG.
# Cells were further treated with 2 mM GalNAcα-benzyl (lanes 1, 4, 7, 10), 2 mM GalNAcβ-benzyl (lanes 2, 5, 8, 11) or 2 mM GlcNAcα-benzyl (lanes 3, 6, 9, 12). Cells were washed and lysed at 36 hours and the lysates subjected to immunoprecipitation with monoclonal antibodies HMFG2 (lanes 1-6) or 5E5 (lanes 7-12). Immunoprecipitates were analysed by SDS-PAGE and western blot using HMFG2 antibody. Lanes M and C as described in legend to FIG. 7.
# We next analysed the expression of MUC1 produced by CHO1d1D/MUC1F-clone2 cells by SDS-PAGE western analysis. […] Cells were further treated with 2 mM GalNAcα-benzyl, GlcNAcα-benzyl or no inhibitor. Cells were washed and lysed at 24 or 48 hours and the lysates subjected to immunoprecipitation with monoclonal antibody HMFG2, which broadly recognize MUC1 glycoforms. Immunoprecipitates were analysed by SDS-PAGE and western blot using HMFG2 antibody to detect MUC1 expression. […] In striking contrast, treatment with GalNAcα-benzyl had significant effect after 48 hours. […] This indicates some heterogeneity in glycosylation.
# As shown in Examples 2 and 3, polypeptide GalNAc-transferases contain lectin domains with binding properties for GalNAc-peptides including GalNAc-MUC1 peptides. […] GalNAcβ-benzyl, the β-anomeric configuration of GalNAc-benzyl (there is a β linkage between the N-acetylgalactosamine and the benzyl ring), was custom synthesized by Alberta Research Council (Canada), and its structure was confirmed by mass spectrometry and ^1H-NMR. […] Cells were then treated with 2 mM GalNAcα-benzyl, GalNAcβ-benzyl, or GlcNAcα-benzyl as control (GlcNAcα-benzyl was shown in Example 4 to have no effect). Cells were washed and lysed as described above after 36 hours and the lysates subjected to immunoprecipitation with anti-MUC1 monoclonal antibodies HMFG2 or 5E5. […] FIG. 15 illustrates the same experiment as in FIG. 14 except that the detection antibody is 5E5 and only Tn and STn MUC1 glycoforms are visualised.
# [2] = tested on: MUC5AC in HT-29 MTX cells; experiment: MUC5AC secretion, SDS-PAGE western blot of media with LUM5-1 (FIG. 17); format: cell-based, human; conditions: 5 mM, continuous culture, media at 14 days
# Procedure: FIG. 17 illustrates SDS-PAGE Western analysis of MUC5AC secretion from HT29MTX cells using polyclonal anti-MUC5AC antibody LUM5-1. In order to evaluate GalNAcβ-benzyl as an inhibitor of mucin glycosylation and secretion we used the HT-29 metotrexate (MTX) cultured colon carcinoma cells of mucin secreting phenotype. HT-29 MTX cells have a goblet cell like phenotype with constitutive production of MUC5AC. Cells were continuously grown up to 21 days in the presence of 5 mM GalNAcα-benzyl, 5 mM GalNAcβ-benzyl, 5 mM GlcNAcα-benzyl and without inhibitor. […] In striking contrast, MUC5AC was not detected in the media from cells treated with GalNAcα-benzyl (Lane 3) or GalNAcβ-benzyl (Lane 4). Results shown are from media collected at 14 days.
# In order to evaluate GalNAcβ-benzyl as an inhibitor of mucin glycosylation and secretion we used the cultured colon carcinoma cells of mucin secreting phenotypes: HT-29 metotrexate (MTX) cells selected from the HT-29 cell line by culture in the presence of MTX (kind gift from G. Huet, France). The HT-29 MTX cells were selected to yield a goblet cell like phenotype with constitutive production of MUC5AC. In order to ensure proper goblet cell differentiation the HT29MTX cell line were continuously grown up to 21 days in the presence of 5 mM GalNAcα-benzyl, 5 mM GalNAcβ-benzyl, 5 mM GlcNAcα-benzyl and without inhibitor using culture conditions as described in Hennebicq-Reig et al. (Permanent exposure of mucin-secreting HT-29 cells to benzyl-N-acetyl-alpha-D-galactosaminide induces abnormal O-glycosylation of mucins and inhibits constitutive and stimulated MUC5AC secretion. Biochem J. 1998; 334:283-95). […] Furthermore the viscosity of the media from cells with and without inhibitor was evaluated using viscosity micro-measurement.
# [3] = target: T1, GalNAc-T2 lectin domain (Homo sapiens, UniProt Q10471); experiment: Inhibition of GalNAc-T2 lectin domain (T2ld) binding to GalNAc-MUC1 glycopeptide, ELISA
# T1 construct: comprises amino acid residues 408-571 of GALNT2; made in house; host or cells: baculovirus (pAcGP67-A), virus made in Sf9, protein produced in High Five insect cells
# T1 sequence (Q10471 408-571): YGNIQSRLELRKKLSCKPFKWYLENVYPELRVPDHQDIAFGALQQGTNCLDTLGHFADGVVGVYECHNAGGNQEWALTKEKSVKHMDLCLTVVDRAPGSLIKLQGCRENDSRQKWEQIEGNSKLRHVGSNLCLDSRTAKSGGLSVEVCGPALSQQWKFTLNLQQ
# Procedure: (§1) Direct binding ELISA assay was developed as follows: Polystyrene microtiter plates (Maxisorb, Nunc, Denmark) were coated with peptides or enzymatically glycosylated glycopeptides in PBS overnight at 4° C. Plates were washed and blocked with 0.1% Tween20 and 0.2% BSA in PBS for 1 h at room temperature, followed by incubation with biotinylated proteins in PBS with 0.05% Tween20 for 2 h at room temperature. After four washes with PBS, plates were incubated with 1:2,000 dilution streptavidin-HRP (Sigma) in PBS for 30 min at room temperature and washed four times with PBS. Development was performed with 0.5 mg/ml o-phenylenediamine and 0.02% H2O2 at room temperature for 15 min, and reaction stopped by adding 100 μl/well of 0.5 N H2SO4. Competitive inhibition assays were done at end-point titers of GalNAc-transferase proteins with one hour preincubations with inhibitor.
# (§2) In binding studies using lectins without biotinylation antibodies to the HIS-tag and the T7-tag, or in some experiments antibodies raised to GalNAc-T2 and -T4 enzymes were used to detect binding.
# (§3) Inhibition experiments were used to further define the binding specificity of GalNAc-T2 and -T4 secreted soluble enzymes as well as lectin domains compared to Helix Pomatia lectin (Table IV).
# [4] = target: T2, GalNAc-T4 lectin domain (Homo sapiens, UniProt Q8N4A0); experiment: Inhibition of GalNAc-T4 lectin domain (T4ld) binding to GalNAc-MUC1 glycopeptide, ELISA
# T2 construct: comprises amino acid residues 405-578 of GALNT4; made in house; host or cells: baculovirus (pAcGP67-A), virus made in Sf9, protein produced in High Five insect cells
# T2 sequence (Q8N4A0 405-578): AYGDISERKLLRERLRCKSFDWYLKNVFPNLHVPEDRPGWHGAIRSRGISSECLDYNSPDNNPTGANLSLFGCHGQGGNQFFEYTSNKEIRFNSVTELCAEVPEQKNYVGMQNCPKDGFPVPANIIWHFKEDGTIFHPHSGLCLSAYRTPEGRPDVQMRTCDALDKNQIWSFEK
# Procedure: as §1, §2, §3
# [5] = tested on: GalNAc-T2 and -T4 secreted soluble enzymes as well as lectin domains; experiment: Inhibition of GalNAc-transferase lectin binding to GalNAc-glycopeptides, statements on GalNAc-T2 and -T4 together; parameters: species or system human; conditions: enzymes and isolated lectins
# Procedure: as §1
# Lectins and antibodies to carbohydrates usually recognize the anomeric configuration of the sugar structures they bind.
# as §3
# [6] = target: T3, secreted soluble GalNAc-T4 (Homo sapiens, UniProt Q8N4A0); experiment: Inhibition of secreted soluble GalNAc-T4 (sT4) binding to GalNAc-MUC1 glycopeptide, ELISA
# T3 construct: 6xHis (N); thrombin cleavage site (N); T7 antibody site (N); made in house; host or cells: baculovirus (pAcGP67A), High Five insect cells
# T3 sequence (Q8N4A0 36-578 limits assumed): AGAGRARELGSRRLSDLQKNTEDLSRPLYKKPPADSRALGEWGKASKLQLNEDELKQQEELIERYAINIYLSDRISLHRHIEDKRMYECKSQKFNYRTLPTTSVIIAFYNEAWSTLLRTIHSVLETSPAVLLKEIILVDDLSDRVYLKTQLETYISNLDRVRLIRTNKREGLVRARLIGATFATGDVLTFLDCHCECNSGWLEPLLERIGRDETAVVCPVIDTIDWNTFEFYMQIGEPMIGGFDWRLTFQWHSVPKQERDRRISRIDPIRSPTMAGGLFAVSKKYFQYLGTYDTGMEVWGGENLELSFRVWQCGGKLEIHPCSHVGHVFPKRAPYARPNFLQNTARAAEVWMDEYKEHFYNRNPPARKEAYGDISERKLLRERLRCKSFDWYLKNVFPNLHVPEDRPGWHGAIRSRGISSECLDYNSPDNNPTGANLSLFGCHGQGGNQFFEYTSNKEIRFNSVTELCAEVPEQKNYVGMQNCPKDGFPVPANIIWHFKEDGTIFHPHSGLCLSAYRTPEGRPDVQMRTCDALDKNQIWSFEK
# Procedure: as §1, §3
# [7] = target: GalNAc-T4 (Homo sapiens, UniProt Q8N4A0); conditions: 230 mM; cited from earlier work
# GalNAc-T4, sequence (Q8N4A0 whole entry): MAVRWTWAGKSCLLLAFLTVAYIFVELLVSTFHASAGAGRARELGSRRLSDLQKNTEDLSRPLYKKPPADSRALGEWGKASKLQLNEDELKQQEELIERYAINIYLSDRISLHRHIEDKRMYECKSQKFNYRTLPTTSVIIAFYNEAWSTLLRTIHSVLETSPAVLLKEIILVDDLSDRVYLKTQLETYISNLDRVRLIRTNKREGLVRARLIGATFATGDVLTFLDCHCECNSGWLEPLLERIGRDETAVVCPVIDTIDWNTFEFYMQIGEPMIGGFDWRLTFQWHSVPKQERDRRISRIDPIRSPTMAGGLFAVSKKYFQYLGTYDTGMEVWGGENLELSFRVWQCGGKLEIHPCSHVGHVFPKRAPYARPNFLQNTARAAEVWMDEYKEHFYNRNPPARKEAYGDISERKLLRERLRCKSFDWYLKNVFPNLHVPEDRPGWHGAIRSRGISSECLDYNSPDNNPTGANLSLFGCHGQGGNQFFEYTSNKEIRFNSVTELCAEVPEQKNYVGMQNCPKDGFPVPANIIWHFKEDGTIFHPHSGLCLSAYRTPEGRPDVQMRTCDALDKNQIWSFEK
# [8] = target: T4, secreted soluble GalNAc-T2 (Homo sapiens, UniProt Q10471); experiment: Inhibition of secreted soluble GalNAc-T2 (sT2) binding to GalNAc-MUC1 glycopeptide, ELISA
# T4 construct: 6xHis (N); thrombin cleavage site (N); T7 antibody site (N); made in house; host or cells: baculovirus (pAcGP67A), High Five insect cells
# T4 sequence (Q10471 52-571 limits assumed): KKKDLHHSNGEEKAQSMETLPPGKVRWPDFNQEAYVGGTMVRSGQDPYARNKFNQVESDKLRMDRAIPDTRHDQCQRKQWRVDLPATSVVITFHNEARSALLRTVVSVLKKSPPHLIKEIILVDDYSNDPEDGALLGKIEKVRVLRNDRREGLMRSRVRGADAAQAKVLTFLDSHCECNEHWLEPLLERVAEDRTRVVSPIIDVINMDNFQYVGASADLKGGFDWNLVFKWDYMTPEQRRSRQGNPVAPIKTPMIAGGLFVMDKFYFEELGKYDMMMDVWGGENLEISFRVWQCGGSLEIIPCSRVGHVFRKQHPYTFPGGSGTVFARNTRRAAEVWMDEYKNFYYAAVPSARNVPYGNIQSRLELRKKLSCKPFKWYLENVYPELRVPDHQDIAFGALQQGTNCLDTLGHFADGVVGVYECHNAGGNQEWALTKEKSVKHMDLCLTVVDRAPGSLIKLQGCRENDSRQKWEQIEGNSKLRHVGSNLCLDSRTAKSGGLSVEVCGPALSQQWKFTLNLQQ
# Procedure: as §1, §3
# [9] = target: T5, human GalNAc-T2 (UDP-GalNAc:polypeptide N-acetylgalactosaminyltransferase T2) isolated truncated lectin domain (T2ld), HIS-tagged, amino acid residues 408-571 o (Homo sapiens, UniProt Q10471); format: binding
# T5 sequence (Q10471 408-571): T1 sequence (Q10471 408-571)
# From the text: (§4) In order to minimize the size and functional complexity of GalNAc-transferase lectins to be used as probes for binding studies, we used multiple sequence alignment analysis to predict and design suitable expression constructs for isolated lectin domains (FIG. 2). In the present invention a direct binding assay was developed using isolated lectin domains of GalNAc-T4 and -T2 with minimal size (FIG. 5). […] The lectin Helix Pomatia (HP) was used as a control plant lectin with known binding specificity for […].
# as §1, §2, §3
# (§5) The ligand target used in this Example is a GalNAc-MUC1 glycopeptide produced enzymatically from synthetic peptides.
# [10] = target: human GalNAc-T4 (UDP-GalNAc:polypeptide N-acetylgalactosaminyltransferase T4) isolated truncated lectin domain (T4ld), HIS-tagged, amino acid residues 405-578 o (Homo sapiens, UniProt Q8N4A0); experiment: biochemical; format: binding; conditions: isolated lectin domain
# human GalNAc-T4 (UDP-GalNAc:polypeptide N-acetylgalactosaminyltransferase T4) isolated truncated lectin domain (T4ld), HIS-tagged, amino acid residues 405-578 o, sequence (Q8N4A0 405-578): as the sequence (Q8N4A0 405-578) above
# From the text: as §4, §1, §2, §3, §5
IC50 [3],IC50 [4],IC50 [6],IC50 [8],Compound,further results
,,,,CC(=O)N[C@H]1[C@@H](OCc2ccccc2)O[C@H](CO)[C@@H](O)[C@@H]1O [BzlαGlcNAc],"MUC1 expression ([1]; HMFG2 blot, cells grown in GalNAc or Gal and GalNAc, listed as GlcNAcα-benzyl): same glycoforms at similar intensity; also recorded: no effect; SDS-PAGE migration of MUC1 (O-glycosylation) ([1]; cells grown in Gal and GalNAc): no effect; MUC5AC in media (secretion) [2]: detected"
37 mM,5 mM,1 mM,15 mM,"CC(=O)N[C@H]1C(O)O[C@H](CO)[C@H](O)[C@@H]1O (stereo partly drawn) [GalNAc, N-acetylgalactosamine]","inhibition of GalNAc-T2 and -T4 lectin mediated binding, in words [5]: selectively inhibited; inhibition of GalNAc-glycopeptide activity of GalNAc-T4 [7]: selective inhibition"
,,,,OC[C@H]1OC(O)[C@H](O)[C@@H](O)[C@H]1O (stereo partly drawn) [Gal],inhibition of GalNAc-T2 lectin domain binding (in words) [9]: no inhibitory effect; inhibition of GalNAc-T4 lectin domain binding (in words) [10]: no inhibitory effect
> 100 mM,> 100 mM,> 100 mM,> 100 mM,OC[C@H]1O[C@@H](O[C@H]2[C@H](O)[C@@H](O)C(O)O[C@@H]2CO)[C@H](O)[C@@H](O)[C@H]1O (stereo partly drawn) [Lactose],
